IC50 data for 26 compounds are collected here from patent US8536180B2, “Pyrimidine inhibitors of kinase activity” (AbbVie Inc., priority 2009, dated 2013).

This assay concerns the target T1, C-terminal GST-tagged, recombinant, human IGF-1R, amino acids 954-1367 (Homo sapiens, UniProt P08069).
T1 construct: human IGF-1R, amino acids 954-1367 expressed by baculovirus in Sf21 cells; GST (C); purchased Cell Signaling Technology; host or cells: baculovirus in Sf21 cells
Description: IGF-1R homogenous time-resolved fluorescence (HTRF) in vitro kinase assay. The conditions noted are these: IGF-1R kinase, ATP 50 μM final, biotinylated peptide substrate 0.5 μM, 60 minutes at room temperature. The assay is classed as biochemical. The procedure: IGF-1R kinase activity was assayed by a homogenous time-resolved fluorescence (HTRF) in vitro kinase assay (Mathis, G., HTRF(R) Technology. J Biomol Screen, 1999. 4(6): p. 309-314). Specifically, 10 μL C-terminal GST-tagged, recombinant, human IGF-1R, amino acids 954-1367 expressed by baculovirus in Sf21 cells (Cell Signaling Technology) was mixed with 10 μL inhibitor (various concentrations, 2% final DMSO) and 10 μL of ATP (50 μM final concentration) in reaction buffer (50 mM HEPES, pH 7.5, 10 mM MgCl2, 2 mM MnCl2, 0.1% BSA and 1 mM DTT, 40 μL final volume). The reaction was initiated by addition of 10 μL of biotinylated peptide substrate (Biotin-Ahx-[…], 0.5 μM final concentration) in a black 384-well plate (Packard). After 60 minutes incubation at room temperature, the reaction was quenched by addition of 60 μL stop/revelation buffer to give 30 mM EDTA, 1 μg/mL streptavidin-APC (Prozyme), 50 ng/mL anti-phosphotyrosine mAb PT66-K Europium Cryptate, 30 mM HEPES, pH 7.5, 120 mM KF, 0.005% Tween-20, 0.05% BSA). The quenched reaction was allowed to stand at room temperature for 1 hour and then read in a time-resolved fluorescence detector (Envision, Perkin Elmer) at 615 nm and 665 nm simultaneously. The ratio between the signal of 615 nm and 665 nm was used in the calculation of the IC50.

T1 sequence (P08069 954-1367): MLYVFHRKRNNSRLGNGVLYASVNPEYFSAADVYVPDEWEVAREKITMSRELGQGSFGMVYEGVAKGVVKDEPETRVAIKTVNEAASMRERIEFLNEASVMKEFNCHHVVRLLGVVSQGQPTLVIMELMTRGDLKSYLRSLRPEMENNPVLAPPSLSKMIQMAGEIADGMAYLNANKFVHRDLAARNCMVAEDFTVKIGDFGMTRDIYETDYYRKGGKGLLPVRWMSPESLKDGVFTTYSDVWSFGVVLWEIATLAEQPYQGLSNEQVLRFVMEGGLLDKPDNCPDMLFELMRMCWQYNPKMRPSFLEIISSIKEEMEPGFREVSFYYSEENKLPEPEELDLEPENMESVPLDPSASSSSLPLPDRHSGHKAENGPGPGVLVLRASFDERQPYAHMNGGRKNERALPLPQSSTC

As for `O=C1CCCN1c1cccc(Nc2nccc(-c3c(-c4ccc5[nH]c(Cc6ccccc6)nc5c4)nc4ccccn34)n2)c1` [Example 1, 1-[3-({4-[2-(2-benzyl-1H-benzimidazol-5-yl)imidazo[1,2-a]pyridin-3-yl]pyrimidin-2-yl}amino)phenyl]pyrrolidin-2-one], the IC50 lay within 10 to 50 nM.

For `CN(C)CCc1cccc(Nc2nccc(-c3c(-c4ccc5nc(Cc6ccccc6)[nH]c5c4)nc4ccccn34)n2)c1` [Example 2, 4-[2-(2-benzyl-1H-benzimidazol-6-yl)imidazo[1,2-a]pyridin-3-yl]-N-{3-[2-(dimethylamino)ethyl]phenyl}pyrimidin-2-amine], the half-maximal inhibitory concentration (IC50) was less than 10 nM.

With `COc1ccccc1Cc1nc2cc(-c3nc4ccccn4c3-c3ccnc(Nc4cccc(CCN(C)C)c4)n3)ccc2[nH]1` [Example 3, N-{3-[2-(dimethylamino)ethyl]phenyl}-4-{2-[2-(2-methoxybenzyl)-1H-benzimidazol-5-yl]imidazo[1,2-a]pyridin-3-yl}pyrimidin-2-amine], the IC50 is less than 10 nM.

Take `c1ccc(Cc2nc3cc(-c4nc5ccccn5c4-c4ccnc(Nc5ccccc5)n4)ccc3[nH]2)cc1` [Example 4, 4-[2-(2-benzyl-1H-benzimidazol-5-yl)imidazo[1,2-a]pyridin-3-yl]-N-phenylpyrimidin-2-amine]: the half-inhibitory concentration (IC50) was in the range of 10 to 50 nM.

Regarding `CN(C)CCc1cccc(Nc2nccc(-c3c(-c4ccc5[nH]c(Cc6ccccc6Cl)nc5c4)nc4ccccn34)n2)c1` [Example 5, 4-{2-[2-(2-chlorobenzyl)-1H-benzimidazol-5-yl]imidazo[1,2-a]pyridin-3-yl}-N-{3-[2-(dimethylamino)ethyl]phenyl}pyrimidin-2-amine], the IC50 was less than 10 nM.

Turning to `CN(C)CCc1cccc(Nc2nccc(-c3c(-c4ccc5[nH]c(Cc6ccccc6C(F)(F)F)nc5c4)nc4ccccn34)n2)c1` [Example 6, N-{3-[2-(dimethylamino)ethyl]phenyl}-4-(2-{2-[2-(trifluoromethyl)benzyl]-1H-benzimidazol-5-yl}imidazo[1,2-a]pyridin-3-yl)pyrimidin-2-amine], the IC50 is less than 10 nM.

`CN(C)CCc1cccc(Nc2nccc(-c3c(-c4ccc5nc(Cc6ccccc6)[nH]c5c4)nc4sccn34)n2)c1` [Example 7, 4-[6-(2-benzyl-1H-benzimidazol-6-yl)imidazo[2,1-b][1,3]thiazol-5-yl]-N-{3-[2-(dimethylamino)ethyl]phenyl}pyrimidin-2-amine]: the IC50 was less than 10 nM.

`COc1ccccc1Cc1nc2ccc(-c3nc4sccn4c3-c3ccnc(Nc4cccc(CCN(C)C)c4)n3)cc2[nH]1` [Example 8, N-{3-[2-(dimethylamino)ethyl]phenyl}-4-{6-[2-(2-methoxybenzyl)-1H-benzimidazol-6-yl]imidazo[2,1-b][1,3]thiazol-5-yl}pyrimidin-2-amine]: the IC50 was less than 10 nM.

With `CN(C)CCc1cccc(Nc2nccc(-c3c(-c4ccc5nc(Cc6ccccc6Cl)[nH]c5c4)nc4sccn34)n2)c1` [Example 9, 4-{6-[2-(2-chlorobenzyl)-1H-benzimidazol-6-yl]imidazo[2,1-b][1,3]thiazol-5-yl}-N-{3-[2-(dimethylamino)ethyl]phenyl}pyrimidin-2-amine], the IC50 was less than 10 nM.

As to `CN(C)CCc1cccc(Nc2nccc(-c3c(-c4ccc5nc(CCc6ccccc6)[nH]c5c4)nc4ccccn34)n2)c1` [Example 10, N-{3-[2-(dimethylamino)ethyl]phenyl}-4-{2-[2-(2-phenylethyl)-1H-benzimidazol-6-yl]imidazo[1,2-a]pyridin-3-yl}pyrimidin-2-amine], the IC50 lay within 10 to 50 nM.

On to `c1ccc(Nc2nccc(-c3c(-c4ccc5nc(-c6ccccc6)[nH]c5c4)nc4ccccn34)n2)cc1` [Example 11, N-phenyl-4-[2-(2-phenyl-1H-benzimidazol-6-yl)imidazo[1,2-a]pyridin-3-yl]pyrimidin-2-amine], for which the IC50 was in the range of 101 to 500 nM.

For the compound `CN(C)CCc1cccc(Nc2nccc(-c3c(-c4ccc5nc(Nc6ccccc6)[nH]c5c4)nc4ccccn34)n2)c1` [Example 12, 6-{3-[2-({3-[2-(dimethylamino)ethyl]phenyl}amino)pyrimidin-4-yl]imidazo[1,2-a]pyridin-2-yl}-N-phenyl-1H-benzimidazol-2-amine], the IC50 is less than 10 nM.

As to `CN(C)CCc1cccc(Nc2nccc(-c3c(-c4ccc5nc(-c6ccccc6)[nH]c5c4)nc4ccccn34)n2)c1` [Example 13, N-{3-[2-(dimethylamino)ethyl]phenyl}-4-[2-(2-phenyl-1H-benzimidazol-6-yl)imidazo[1,2-a]pyridin-3-yl]pyrimidin-2-amine], the IC50 was in the range of 10 to 50 nM.

Turning to `COc1cc(N2CCOCC2)ccc1Nc1nccc(-c2c(-c3ccc4nc(Cc5ccccc5)[nH]c4c3)nc3ccccn23)n1` [Example 14, 4-[2-(2-benzyl-1H-benzimidazol-6-yl)imidazo[1,2-a]pyridin-3-yl]-N-(2-methoxy-4-morpholin-4-ylphenyl)pyrimidin-2-amine], the IC50 is less than 10 nM.

For `COc1ccccc1Nc1nccc(-c2c(-c3ccc4nc(Cc5ccccc5)[nH]c4c3)nc3ccccn23)n1` [Example 15, 4-[2-(2-benzyl-1H-benzimidazol-6-yl)imidazo[1,2-a]pyridin-3-yl]-N-(2-methoxyphenyl)pyrimidin-2-amine], the IC50 fell in the range of 51 to 100 nM.

Consider `CS(=O)(=O)c1cccc(Nc2nccc(-c3c(-c4ccc5nc(Cc6ccccc6)[nH]c5c4)nc4ccccn34)n2)c1` [Example 16, 4-[2-(2-benzyl-1H-benzimidazol-6-yl)imidazo[1,2-a]pyridin-3-yl]-N-[3-(methylsulfonyl)phenyl]pyrimidin-2-amine], for which the IC50 was in the range of 51 to 100 nM.

In the case of `CN(C)S(=O)(=O)c1cccc(Nc2nccc(-c3c(-c4ccc5nc(Cc6ccccc6)[nH]c5c4)nc4ccccn34)n2)c1` [Example 17, 3-({4-[2-(2-benzyl-1H-benzimidazol-6-yl)imidazo[1,2-a]pyridin-3-yl]pyrimidin-2-yl}amino)-N,N-dimethylbenzenesulfonamide], the IC50 is 101 to 500 nM.

On to `CS(=O)(=O)c1ccc(Nc2nccc(-c3c(-c4ccc5nc(Cc6ccccc6)[nH]c5c4)nc4ccccn34)n2)cc1` [Example 18, 4-[2-(2-benzyl-1H-benzimidazol-6-yl)imidazo[1,2-a]pyridin-3-yl]-N-[4-(methylsulfonyl)phenyl]pyrimidin-2-amine], for which the IC50 lay within 51 to 100 nM.

On to `c1ccc(Nc2nccc(-c3c(-c4ccc5nc(Nc6ccccc6)[nH]c5c4)nc4ccccn34)n2)cc1` [Example 19, 6-[3-(2-anilinopyrimidin-4-yl)imidazo[1,2-a]pyridin-2-yl]-N-phenyl-1H-benzimidazol-2-amine], for which the IC50 is more than 500 nM.

Consider `COc1ccccc1Cc1nc2ccc(-c3nc4ccccn4c3-c3ccnc(Nc4ccc(N5CCOCC5)cc4OC)n3)cc2[nH]1` [Example 20, 4-{2-[2-(2-methoxybenzyl)-1H-benzimidazol-6-yl]imidazo[1,2-a]pyridin-3-yl}-N-(2-methoxy-4-morpholin-4-ylphenyl)pyrimidin-2-amine], for which the IC50 lay in the range of 51 to 100 nM.

Turning to `COc1cc(N2CCOCC2)ccc1Nc1nccc(-c2c(-c3ccc4nc(Cc5c(F)cccc5F)[nH]c4c3)nc3ccccn23)n1` [Example 21, 4-{2-[2-(2,6-difluorobenzyl)-1H-benzimidazol-6-yl]imidazo[1,2-a]pyridin-3-yl}-N-(2-methoxy-4-morpholin-4-ylphenyl)pyrimidin-2-amine], the IC50 lay within 10 to 50 nM.

For `COc1cc(N2CCC(N3CCN(C)CC3)CC2)ccc1Nc1nccc(-c2c(-c3ccc4[nH]c(Cc5ccccc5)nc4c3)nc3ccccn23)n1` [Example 22, 4-[2-(2-benzyl-1H-benzimidazol-5-yl)imidazo[1,2-a]pyridin-3-yl]-N-{2-methoxy-4-[4-(4-methylpiperazin-1-yl)piperidin-1-yl]phenyl}pyrimidin-2-amine], the IC50 is less than 10 nM.

Take `c1ccc(Cc2nc3ccc(-c4nc5sccn5c4-c4ccnc(Nc5ccccc5)n4)cc3[nH]2)cc1` [Example 23, 4-[6-(2-benzyl-1H-benzimidazol-6-yl)imidazo[2,1-b][1,3]thiazol-5-yl]-N-phenylpyrimidin-2-amine]: the half-inhibitory concentration (IC50) was 51 to 100 nM.

As to `COc1ccccc1Nc1nccc(-c2c(-c3ccc4nc(Cc5ccccc5)[nH]c4c3)nc3sccn23)n1` [Example 24, 4-[6-(2-benzyl-1H-benzimidazol-6-yl)imidazo[2,1-b][1,3]thiazol-5-yl]-N-(2-methoxyphenyl)pyrimidin-2-amine], the IC50 fell in the range of 10 to 50 nM.

Consider `Cc1cc(Nc2nccc(-c3c(-c4ccc5nc(Cc6ccccc6)[nH]c5c4)nc4ccccn34)n2)n[nH]1` [Example 25, 4-[2-(2-benzyl-1H-benzimidazol-6-yl)imidazo[1,2-a]pyridin-3-yl]-N-(5-methyl-1H-pyrazol-3-yl)pyrimidin-2-amine], for which the IC50 was in the range of 51 to 100 nM.

For `c1ccc(Cc2nc3ccc(-c4nc5ccccn5c4-c4ccnc(Nc5cc(C6CC6)n[nH]5)n4)cc3[nH]2)cc1` [Example 26, 4-[2-(2-benzyl-1H-benzimidazol-6-yl)imidazo[1,2-a]pyridin-3-yl]-N-(3-cyclopropyl-1H-pyrazol-5-yl)pyrimidin-2-amine], the concentration for half-maximal inhibition (IC50) was 10 to 50 nM.
